Entries after “also recorded” stand apart in the source; their conditions may differ.
Experiments:
[1] = tested on: human naïve NKTs (CD161^+CD3^+); experiment: Cytokine/chemokine secretion by human naïve CD161+CD3+ NKTs co-cultured with autologous immature CD14+ DCs; assay type: cell-based; conditions: for IFN/IL-4 ratio (TH1/TH2 bias): normalized to DMSO control; for induction of IL-3, GM-CSF and IL-15 / secretion of IFN-γ: 10 μg/ml, 18 hour culture; for secretion of IFN-γ: compared with α-GalCer
BALB/c mice [2] = experiment: Expansion/activation of mouse splenocyte subpopulations 72 h after injection; assay type: in vivo; conditions: for B cell expansion: FIGS. 26E, 28E and 30E; for CD8^+/CD4^+ ratio: FIGS. 26H, 28H and 30H; for activation of B cells: IM route; for activation of B cells / total and mature DCs: compared with C1; for total and mature DCs: FIGS. 26B, 28B and 30B
[3] = tested on: syngeneic lung cancer (TC1) cells; experiment: Lung cancer model in mice (TC1, IV inoculation); assay type: in vivo, mouse; conditions: for anti-cancer efficacy compared with C1: IV administration
[4] = tested on: extracellular domain of the M2 protein of the H1N1 subtype of the Influenza A virus; conditions: mouse, in vivo
[5] = tested on: FLU-A virus serotype H1N1 (WSN); experiment: Influenza virus H1N1 (WSN) infection in BALB/c mice; conditions: mouse, in vivo
tetanus toxoid (TT) = conditions: mouse, in vivo
BALB/c mice [6] = experiment: Mouse serum cytokines/chemokines after IV, SubQ or IM injection; assay type: in vivo; conditions: for serum IL-2, IL-12, MIP-1β and MCP-1: IV administration
Sphingomonas capsulata = experiment: Antibacterial efficacy in Sphingomonas capsulata infected mice; assay type: in vivo, mouse; conditions: for CFU numbers in liver: 100 μg/kg IP, 24 hour after bacterial infection
Description: Sphingomonas capsulata is a common environmental bacterial strain that is found in many places such as the air and water. It can be easily identified on nutrient agar plates because of its yellow colony color. […] Since the antibacterial activities of glycolipid antigens are mediated through the activation of NKT cells by glycolipid bound-CD1-d molecules, evaluation of the antibacterial efficacies using the disease model of Sphingomonas capsulata infection will focus on the impact of the NKT mediated pathway that is activated by glycolipid bindings. Six to eight week old female C57BL/6 mice were injected IP with Sphingomonas capsulate cells. […] Twenty-four hours after bacterial infection, livers were removed from mice and homogenized. Colony formation units (CFU) of Sphingomonas capsulate in liver homogenates were determined by plating diluted samples on nutrient plates. Colonies were counted after incubation for 48 hours at 37° C. […] To confirm the antibacterial efficacies of these α-GalCer analogs, another study was conducted to repeat the study by treating infected mice with 50 μg/kg in the same disease model. […] Six to eight week old female C57BL/6 mice were injected IP with 5×10^8 Sphingomonas capsulate cells. Mice were grouped into treatment and control groups with 4-6 mice per group. Four hours after the infection, mice in the treatment group were injected IP with testing α-GalCer analogs at 50 or 100 μg/kg, and the control group mice were injected with same volumes of PBS. Twenty-four hours after bacterial infection, mice from all groups were sacrificed. Livers were removed from mice and homogenized in 0.9% NaCl, 0.02% Tween 80 using tissue homogenizers. Colony formation units (CFU) of Sphingomonas capsulate in liver homogenates were determined by plating diluted samples on nutrient plates. Colonies were counted after incubation for 48 hours at 37° C.

[7] = tested on: syngeneic breast cancer (4T1); experiment: Breast cancer model in mice (4T1, SubQ inoculation); assay type: in vivo, mouse
naïve CD161^+/CD3^+ NKTs = experiment: Human NKT TCR activation (phosphoproteins), glycolipid presented by HeLa, HeLa-CD1d or iDCs, 10 μg/ml; assay type: cell-based; conditions: for intracellular phospho-CD3ε / phospho-ERK1/2: 10 μg/ml
[8] = tested on: FLU-A virus serotype H1N1 (WSN); experiment: Cytopathetic effect / virus titer in MDCK cells infected with H1N1 (WSN); assay type: cell-based
Method: FIG. 60(A-B) show the cytopathetic effect (CPE) of Madin-Darby canine kidney (MDCK) cells in vitro. MDCK cells were pretreated with vehicle, α-GalCer or one of the α-GalCer analogs C13, C14 or C16 at 10 μg/ml for four hours, followed by infection with FLU-A virus serotype H1N1 (WSN) at 10TCID50.
BALB/c mice were treated via intranasal route with control, α-GalCer (C1) or the α-GalCer analogs C13, C14 or C16 at one hour prior to virus challenge with H1N1 (WSN). […] In general, certain α-GalCer analogs may exert direct anti-viral effects, or act indirectly via immune stimulation. […] MDCK cells were pretreated with vehicle, α-GalCer or one of the α-GalCer analogs C13, C14 or C16 at 10 μg/ml for four hours, followed by infection with FLU-A virus serotype H1N1 (WSN) at 10TCID50.

C57BL/6 mice = experiment: Expansion of NKT subsets in spleens of C57BL/6 mice; assay type: in vivo; conditions: C57BL/6 Wt, 72 h post IV injection, 0.1 μg per mouse
[9] = tested on: primary naïve human iNKTs; experiment: Cytokine production by primary naïve human iNKTs cultured with autologous immature DCs; assay type: cell-based; conditions: compared with C11
[10] = tested on: H5 of avian influenza viruses (pHA); assay type: in vivo, mouse; conditions: mouse, in vivo

## CCCCCCCCCCCCCCCCCCCCCCCCCC(=O)N[C@@H](CS[C@H]1O[C@H](CO)[C@H](O)[C@H](O)[C@H]1O)[C@H](O)[C@H](O)CCCCCCCCCCCCCC [C4]
[1]
  IFN/IL-4 ratio (TH1/TH2 bias): more TH2-biased

## CCCCCCCCCCCCCC[C@@H](O)[C@@H](O)[C@H](CO[C@H]1O[C@H](CO)[C@H](O)[C@H](O)[C@H]1O)NC(=O)CCCCCc1ccccc1 [C10]
BALB/c mice [2]
  B cell expansion: more active than C1
[3]
  anti-cancer efficacy compared with C1: significantly greater anti-cancer efficacy than C1
[1]
  induction of IL-3, GM-CSF and IL-15: greater induction of IL-3, granulocyte/macrophage colony-stimulating factor (GM-CSF), and IL-15

## CCCCCCCCCCCCCC[C@@H](O)[C@@H](O)[C@H](CO[C@H]1O[C@H](CO)[C@H](O)[C@H](O)[C@H]1O)NC(=O)CCCCCCCc1ccccc1 [C11]
[4]
  adjuvant effect (comparison): best adjuvant effect which was equivalent to complete Freund's adjuvant (CFA)
  titer relative to C1: 3 fold
[5]
  survival: significantly enhanced survival
Tetanus toxoid (TT)
  antibody response relative to conventional vaccine: ~2 fold
  durability of adjuvant effects: remarkably durable
  level of antibody after delayed boost compared with TT+Alum: twice as high as those given TT+Alum
BALB/c mice [2]
  CD8^+/CD4^+ ratio: more potent than C1
  activation of B cells: stronger activations of B cells than C1
BALB/c mice [2]; SubQ route
  CD8^+ T cells: more activity than C1
BALB/c mice [2]; mouse, in vivo
  B cell expansion/activation: significant activities
  NK and NKT expansion/activation: comparable activities as C1
BALB/c mice [6]
  serum IL-2, IL-12, MIP-1β and MCP-1: striking rises in IL-2, IL-12, MIP-1β and MCP-1
Sphingomonas capsulata; 50 μg/kg
  antibacterial efficacies (CFU in liver): significant in comparison to the untreated group
  difference in the values of the CFU per gram liver among efficacious groups: not statistically significant
Sphingomonas capsulata
  CFU numbers in liver: significantly lower than the control group
[7]; 16 days after treatment
  tumor size: reduced tumor size
[7]; SubQ delivery
  tumor growth and survival compared to control: able to suppress tumor growth and prolong survival as compared to control
[3]; sacrificed on day 16 after tumor inoculation
  tumor nodules on the lung surface: reduced number of tumor nodules on the lung surface
[1]
  induction of IL-3, GM-CSF and IL-15: greater induction of IL-3, granulocyte/macrophage colony-stimulating factor (GM-CSF), and IL-15
  secretion of IFN-γ: significantly greater secretion of IFN-γ than α-GalCer
naïve CD161^+/CD3^+ NKTs; CD1d-dependent, HeLa-CD1d or DCs
  TCR activation: stronger in TCR activation than compounds C1 and C17
naïve CD161^+/CD3^+ NKTs; presented by DCs
  intracellular phospho-CD3ε: 21.3 folds
naïve CD161^+/CD3^+ NKTs; presented by HeLa-CD1d cells
  intracellular phospho-CD3ε: 10 folds of control
naïve CD161^+/CD3^+ NKTs; with DCs
  phospho-ERK1/2: 48.3 folds
naïve CD161^+/CD3^+ NKTs; with HeLa-CD1d cells
  phospho-ERK1/2: 14.6 folds increase

## CCCCCCCCCCCCCCCCCCCCCCCCCC(=O)N[C@@H](CO[C@H]1O[C@H](CO)[C@H](O)[C@H](O)[C@H]1O)[C@H](O)[C@H](O)CCCCc1ccccc1 [C12]
BALB/c mice [2]
  total and mature DCs: significantly greater rises in total and mature DCs than C1
  activation of B cells: stronger activations of B cells than C1
BALB/c mice [2]; FIGS. 26C-D, 28C-D and 30C-D
  expansion/activation of NKs and NKTs: best capacity for expansion/activation of NKs and NKTs
BALB/c mice [2]; FIGS. 26F, 28F and 30F
  CD8^+ T cell expansion/activation: more active than C1
[3]
  anti-cancer efficacy compared with C1: significantly greater anti-cancer efficacy than C1
[1]
  IFN/IL-4 ratio (TH1/TH2 bias): more TH1-biased

## CCCCCCCCCCCCCC[C@@H](O)[C@@H](O)[C@H](CO[C@H]1O[C@H](CO)[C@H](O)[C@H](O)[C@H]1O)NC(=O)CCCCCCCCCCc1ccccc1 [C16]
[5]; ip
  cumulative proportion of survival: prolonged survival
[8]
  entry/replication of H1N1 virus (virus titer): slight inhibition of the entry/replication of H1N1 virus in vitro
BALB/c mice [2]
  total and mature DCs: significantly greater rises in total and mature DCs than C1
  B cell expansion: most effective in B cell expansion
  CD8^+/CD4^+ ratio: more potent than C1
  activation of B cells: stronger activations of B cells than C1
BALB/c mice [2]; IV administration, 72 hours
  expansion of splenocytes: greater potency than C1
BALB/c mice [2]; SubQ route
  CD4^+ T cells: more active over control
  CD8^+ T cells: more activity than C1
BALB/c mice [2]; mouse, in vivo
  CD8^+ T cell expansion/activation: comparable activities as C1; also recorded: more active than C1
  NK and NKT expansion/activation: comparable activities as C1
  expansion/activation of NKs and NKTs: best capacity for expansion/activation of NKs and NKTs
BALB/c mice [6]; 2 hours, IV route, compared with C1
  IFN-γ/IL-4 ratio (TH1/TH2 bias): less TH2 responses than C1
BALB/c mice [6]
  serum IL-2, IL-12, MIP-1β and MCP-1: striking rises in IL-2, IL-12, MIP-1β and MCP-1
BALB/c mice [6]; IV route, over 72 hours
  serum level of IFN-γ: level of activity close to that of C1
Sphingomonas capsulata; 50 μg/kg
  antibacterial efficacies (CFU in liver): significant in comparison to the untreated group
Sphingomonas capsulata
  CFU numbers in liver: significantly lower than the control group
[7]; SubQ delivery
  effects on survival compared with C1: did not differ significantly from that of C1
  suppression of tumor size compared with C1: significantly greater suppression of tumor size than C1
  tumor growth and survival compared to control: able to suppress tumor growth and prolong survival as compared to control
[3]
  anti-cancer efficacy compared with C1: significantly greater anti-cancer efficacy than C1
[1]
  induction of IL-3, GM-CSF and IL-15: greater induction of IL-3, granulocyte/macrophage colony-stimulating factor (GM-CSF), and IL-15
  secretion of IFN-γ: significantly greater secretion of IFN-γ than α-GalCer

## CCCCCCCCCCCCCC[C@@H](O)[C@@H](O)[C@H](CO[C@H]1O[C@H](CO)[C@H](O)[C@H](O)[C@H]1O)NC(=O)CCCCCCCCCCc1ccc(-c2ccccc2)cc1 [C26]
C57BL/6 mice
  total number of NKTs and its two subtypes NKT1 and NKT2: increase of total number of NKTs
[9]
  IFN-γ/IL4 ratio: higher IFN-γ/IL4 ratio
  IL-2: higher levels of IL-2
[10]
  adjuvant activities in enhancing the anti-HAc antibody titer: better adjuvant activities than the others in enhancing the antibody titer
  anti-HA-specific IgG antibody: enhanced
  effectiveness as adjuvant: particularly effective as adjuvants

From patent US20080260774A1, “Alpha-galactosyl ceramide analogs and their use as immunotherapies” (priority 2007, published 2008)
